In patent publication US8188105B2, “Therapeutic agent for inflammatory bowel disease comprising uracil derivative as active ingredient” (Taiho Pharmaceutical Co., Ltd., priority 2007, dated 2012):

System: DSS-induced mouse colitis
Test: Effect on improvement of pathological conditions in DSS-induced IBD model
Type: in vivo, mice (C57BL/6N Jcl)
Set-up: DAI Score (MEANS ± SD): scale not given here
Settings: 2% DSS day 1 to day 7, drug 30 mg/kg/day day 0 to day 7; for Abnormal stool occurrence: mice with abnormal stool (loose stool, diarrhea, blood in stool) counted on day 8, n=6 per group, control 6, non-treatment 0; for DAI Score (MEANS ± SD): DAI scores per Table 1 (body weight loss, stool hardness, fecal occult blood), day 8, control 5.3 ± 2.1
Experimental: This test was performed in accordance with the method described in PEDIATRIC RESEARCH, Vol. 53, No. 1, 143-147, 2003. […] Dextran sulfate sodium (hereinafter abbreviated as “DSS,” product of Wako Pure Chemical Industries, Ltd.) was dissolved in purified water to 2% w/v, and the solution was fed ad libitum to the mice for seven days through a liquid-feed bottle (day 1 to day 7), to thereby establish ulcerative colitis models. The test groups included a drug-non-administration group (control), and a uracil derivative (1)-administration (30 mg/kg/day) group. A non-treatment group was provided through feeding purified water instead of 2% aqueous DSS solution. The drug was administered for eight days from one day before start of feeding 2% aqueous DSS solution (i.e., from day 0 to day 7). The improvement effect was determined on the day following the final drug administration day (on day 8) by counting occurrence of abnormal stools (loose stool, diarrhea, and visual observation of presence of blood in stool).

SMILES	Abnormal stool occurrence	DAI Score (MEANS ± SD)
CNCc1[nH]c(=O)[nH]c(=O)c1Cl [Compound 1, 5-chloro-6-(methylaminomethyl)uracil]	4	
O=c1[nH]c(CN2CCCC2)c(Cl)c(=O)[nH]1 [Compound 2, 5-chloro-6-(1-pyrrolidinylmethyl)uracil]	3	
CN(CCO)Cc1[nH]c(=O)[nH]c(=O)c1Cl [Compound 3, 5-chloro-6-((N-(2-hydroxyethyl)-N-methylamino)methyl)uracil]	3	
Cl.O=c1[nH]c(CSc2nnc[nH]2)c(Cl)c(=O)[nH]1 [Compound 4, 5-chloro-6-(1,2,4-triazole-3-thiomethyl)uracil hydrochloride salt]	0	0.22 ± 0.27
N=C1NCCN1Cc1[nH]c(=O)[nH]c(=O)c1Cl [Compound 5, 5-chloro-6-(1-(2-iminoimidazolidinyl)methyl)uracil]	0	0.28 ± 0.25
O=c1[nH]c(CN2CCCC2)c(Br)c(=O)[nH]1 [Compound 6, 5-bromo-6-(1-pyrrolidinylmethyl)uracil]	2	0.22 ± 0.27
